Assay results taken from ChEMBL document CHEMBL1144691, “Antiproliferative cassane diterpenoids of Cordyla madagascariensis ssp. madagascariensis from the Madagascar rainforest” (J Nat Prod, 2008).

System: A2780
Assay: Antiproliferative activity against human A2780 cells
Assay type: functional, cell-based

Compound | IC50 [µM]
C=C1c2ccoc2C[C@H]2[C@H]1CC[C@H]1[C@@](CO)(C(=O)O)CCC[C@]21C [CORDYLANE D] | > 60
C[C@H]1c2ccoc2C[C@H]2[C@H]1CC[C@H]1[C@@](CO)(C(=O)O)CCC[C@]21C [CORDYLANE C] | > 60
CC(=O)OC[C@]1(CO)CCC[C@]2(C)[C@H]3Cc4occc4[C@H](C)[C@@H]3C[C@@H](OC(C)=O)[C@@H]12 [CORDYLANE B] | 36
CC(=O)OC[C@@]1(CO)CCC[C@]2(C)[C@H]3Cc4occc4[C@H](C)[C@@H]3C[C@@H](OC(C)=O)[C@@H]12 [CORDYLANE A] | 10
